Assay results from patent US20230085307A1, “PYRIDAZINONE COMPOUND AND HERBICIDE” (NISSAN CHEMICAL CORPORATION, priority 2019, published 2023).

Key:
barnyard grass [1] = test: Test Example 5: herbicidal effect by foliage application, plastic box (Table 20, symbol H); type: in vivo, barnyard grass (Echinochloa crus-galli); details: foliage application, 320 g/ha; for herbicidal effect on barnyard grass (H): three weeks after application
Method in brief: (§1)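 Post-emergence foliar test in sterilized diluvial soil. Compound applied as water-diluted emulsion at a predetermined rate to 14-day-old plants; evaluation at three weeks.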

Japanese bulrush = test: Test Example 1: herbicidal activity, application before weed generation under submerged conditions (Table 16, symbol B); type: in vivo, Japanese bulrush (Schoenoplectus juncoides); details: amount of applied herbicide 320 g/ha
Method in brief: (§2)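 Submerged Wagner pots (alluvial soil, 4 cm water) sown with weed seeds and planted with 2.5-leaf rice seedlings; emulsifiable concentrate diluted in water applied to water surface on sowing day. Held in greenhouse at 25-30 °C; injury scored 0-5 by herbicidal rate after three weeks.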

persian speedwell = test: Test Example 5: herbicidal effect by foliage application, plastic box (Table 20, symbol R); type: in vivo, Persian speedwell (Veronica persica); details: foliage application, 320 g/ha; for herbicidal effect on persian speedwell (R): three weeks after application
Method in brief: as §1

southern crabgrass [2] = test: Test Example 5: herbicidal effect by foliage application, plastic box (Table 20, symbol F); type: in vivo, southern crabgrass (Digitaria ciliaris); details: foliage application, 320 g/ha; for herbicidal effect on southern crabgrass (F): three weeks after application
Method in brief: as §1

Chinese sprangletop = test: Test Example 3: herbicidal effect by foliage application, Wagner pot (Table 18, symbol D); type: in vivo, chinese sprangletop (Leptochloa chinensis); details: amount of applied herbicide 320 g/ha
Method in brief: (§3)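 Plants were sown in alluvial soil held under 0.1–0.5 cm standing water and grown 14 days in a greenhouse at 25–30 °C. An emulsifiable formulation, water-diluted to the set dose, was then sprayed onto the foliage, and effects were scored three weeks later using previously defined criteria.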

blackgrass [3] = test: Test Example 4: herbicidal effect by soil treatment (Table 19, symbol J); type: in vivo, blackgrass (Alopecurus myosuroides); details: amount of applied herbicide 320 g/ha
Method in brief: (§4)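 Emulsion of test compound, water-diluted to predetermined amount, sprayed on soil after sowing (seed depth ~1.5 cm, sterilized diluvial soil). Greenhouse, 25–30° C. Effect graded at three weeks post-spray.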

oval-leafed pondweed = test: Test Example 1: herbicidal activity, application before weed generation under submerged conditions (Table 16, symbol C); type: in vivo, oval-leafed pondweed (Monochoria vaginalis); details: amount of applied herbicide 320 g/ha
Method in brief: as §2

wild oat [4] = test: Test Example 5: herbicidal effect by foliage application, plastic box (Table 20, symbol I); type: in vivo, wild oat (Avena fatua); details: foliage application, 320 g/ha; for herbicidal effect on wild oat (I): three weeks after application
Method in brief: as §1

redroot pigweed = test: Test Example 4: herbicidal effect by soil treatment (Table 19, symbol N); type: in vivo, redroot pigweed (Amaranthus retroflexus); details: amount of applied herbicide 320 g/ha
Method in brief: as §4

southern crabgrass [5] = test: Test Example 4: herbicidal effect by soil treatment (Table 19, symbol F); type: in vivo, southern crabgrass (Digitaria ciliaris); details: amount of applied herbicide 320 g/ha
Method in brief: as §4

barnyard grass [6] = test: Test Example 3: herbicidal effect by foliage application, Wagner pot (Table 18, symbol H); type: in vivo, barnyard grass (Echinochloa crus-galli); details: amount of applied herbicide 320 g/ha
Method in brief: as §3

Italian ryegrass = test: Test Example 4: herbicidal effect by soil treatment (Table 19, symbol K); type: in vivo, Italian ryegrass (Lolium multiflorum); details: amount of applied herbicide 320 g/ha
Method in brief: as §4

windgrass = test: Test Example 5: herbicidal effect by foliage application, plastic box (Table 20, symbol L); type: in vivo, windgrass (Apera spica-venti); details: foliage application, 320 g/ha; for herbicidal effect on windgrass (L): three weeks after application
Method in brief: as §1

blackgrass [7] = test: Test Example 5: herbicidal effect by foliage application, plastic box (Table 20, symbol J); type: in vivo, blackgrass (Alopecurus myosuroides); details: foliage application, 320 g/ha; for herbicidal effect on blackgrass (J): three weeks after application
Method in brief: as §1

wild oat [8] = test: Test Example 4: herbicidal effect by soil treatment (Table 19, symbol I); type: in vivo, wild oat (Avena fatua); details: amount of applied herbicide 320 g/ha
Method in brief: as §4

lambsquarters = test: Test Example 5: herbicidal effect by foliage application, plastic box (Table 20, symbol O); type: in vivo, lambsquarters (Chenopodium album); details: foliage application, 320 g/ha; for herbicidal effect on lambsquarters (O): three weeks after application
Method in brief: as §1

[9] = evaluated 3 weeks after application

## CCOc1ccccc1-c1sc2c(Cl)c(OCC)ccc2c1-c1c(O)c(C)nn(C)c1=O [7-004]
Barnyard grass [1]
  herbicidal effect on barnyard grass (H): 5 (Herbicidal rate of 90% or more (almost completely withered))
Japanese bulrush
  Herbicidal effect, B: Japanese bulrush: 3 (Herbicidal rate of 40% or more and less than 70%)
Persian speedwell
  herbicidal effect on persian speedwell (R): 5 (Herbicidal rate of 90% or more (almost completely withered))
Southern crabgrass [2]
  herbicidal effect on southern crabgrass (F): 5 (Herbicidal rate of 90% or more (almost completely withered))
Chinese sprangletop
  Herbicidal effect on D (Chinese sprangletop), foliage application: 5 (Herbicidal rate of 90% or more (almost completely withered))
Blackgrass [3]
  J: blackgrass, herbicidal effect grade: 0 (Herbicidal rate of 5% or less (almost no effect))
oval-leafed pondweed
  Herbicidal effect, C: oval-leafed pondweed: 0 (Herbicidal rate of 5% or less (almost no effect))
Wild oat [4]
  herbicidal effect on wild oat (I): 0 (Herbicidal rate of 5% or less (almost no effect))
Redroot pigweed
  N: redroot pigweed, herbicidal effect grade: 4 (Herbicidal rate of 70% or more and less than 90%)
Southern crabgrass [5]
  F: southern crabgrass, herbicidal effect grade: 3 (Herbicidal rate of 40% or more and less than 70%)
Barnyard grass [6]
  Herbicidal effect on H (barnyard grass), foliage application: 5 (Herbicidal rate of 90% or more (almost completely withered))
Italian ryegrass
  K: Italian ryegrass, herbicidal effect grade: 4 (Herbicidal rate of 70% or more and less than 90%)
windgrass
  herbicidal effect on windgrass (L): 0 (Herbicidal rate of 5% or less (almost no effect))
Blackgrass [7]
  herbicidal effect on blackgrass (J): 5 (Herbicidal rate of 90% or more (almost completely withered))
Wild oat [8]
  I: wild oat, herbicidal effect grade: 0 (Herbicidal rate of 5% or less (almost no effect))
lambsquarters
  herbicidal effect on lambsquarters (O): 4 (Herbicidal rate of 70% or more and less than 90%)

## Cc1nn(C)c(=O)c(-c2c(-c3ccc(OCC(F)(F)F)cc3)oc3ccccc23)c1O [8-005]
Barnyard grass [1]
  herbicidal effect on barnyard grass (H): 5 (Herbicidal rate of 90% or more (almost completely withered))
Japanese bulrush
  Herbicidal effect, B: Japanese bulrush: 5 (Herbicidal rate of 90% or more (almost completely withered))
Persian speedwell
  herbicidal effect on persian speedwell (R): 5 (Herbicidal rate of 90% or more (almost completely withered))
Southern crabgrass [2]
  herbicidal effect on southern crabgrass (F): 5 (Herbicidal rate of 90% or more (almost completely withered))
Chinese sprangletop
  Herbicidal effect on D (Chinese sprangletop), foliage application: 4 (Herbicidal rate of 70% or more and less than 90%)
Blackgrass [3]
  J: blackgrass, herbicidal effect grade: 3 (Herbicidal rate of 40% or more and less than 70%)
oval-leafed pondweed
  Herbicidal effect, C: oval-leafed pondweed: 4 (Herbicidal rate of 70% or more and less than 90%)
Wild oat [4]
  herbicidal effect on wild oat (I): 0 (Herbicidal rate of 5% or less (almost no effect))
Redroot pigweed
  N: redroot pigweed, herbicidal effect grade: 5 (Herbicidal rate of 90% or more (almost completely withered))
Southern crabgrass [5]
  F: southern crabgrass, herbicidal effect grade: 4 (Herbicidal rate of 70% or more and less than 90%)
Barnyard grass [6]
  Herbicidal effect on H (barnyard grass), foliage application: 5 (Herbicidal rate of 90% or more (almost completely withered))
Italian ryegrass
  K: Italian ryegrass, herbicidal effect grade: 5 (Herbicidal rate of 90% or more (almost completely withered))
windgrass
  herbicidal effect on windgrass (L): 3 (Herbicidal rate of 40% or more and less than 70%)
Blackgrass [7]
  herbicidal effect on blackgrass (J): 4 (Herbicidal rate of 70% or more and less than 90%)
Wild oat [8]
  I: wild oat, herbicidal effect grade: 0 (Herbicidal rate of 5% or less (almost no effect))
lambsquarters
  herbicidal effect on lambsquarters (O): 5 (Herbicidal rate of 90% or more (almost completely withered))

## CSCCOc1ccc(-c2oc3ccccc3c2-c2c(O)c(C)nn(C)c2=O)cc1 [8-008]
Barnyard grass [1]
  herbicidal effect on barnyard grass (H): 5 (Herbicidal rate of 90% or more (almost completely withered))
Japanese bulrush
  Herbicidal effect, B: Japanese bulrush: 5 (Herbicidal rate of 90% or more (almost completely withered))
Persian speedwell
  herbicidal effect on persian speedwell (R): 5 (Herbicidal rate of 90% or more (almost completely withered))
Southern crabgrass [2]
  herbicidal effect on southern crabgrass (F): 5 (Herbicidal rate of 90% or more (almost completely withered))
Chinese sprangletop
  Herbicidal effect on D (Chinese sprangletop), foliage application: 4 (Herbicidal rate of 70% or more and less than 90%)
Blackgrass [3]
  J: blackgrass, herbicidal effect grade: 0 (Herbicidal rate of 5% or less (almost no effect))
oval-leafed pondweed
  Herbicidal effect, C: oval-leafed pondweed: 4 (Herbicidal rate of 70% or more and less than 90%)
Wild oat [4]
  herbicidal effect on wild oat (I): 5 (Herbicidal rate of 90% or more (almost completely withered))
Redroot pigweed
  N: redroot pigweed, herbicidal effect grade: 4 (Herbicidal rate of 70% or more and less than 90%)
Southern crabgrass [5]
  F: southern crabgrass, herbicidal effect grade: 3 (Herbicidal rate of 40% or more and less than 70%)
Barnyard grass [6]
  Herbicidal effect on H (barnyard grass), foliage application: 5 (Herbicidal rate of 90% or more (almost completely withered))
Italian ryegrass
  K: Italian ryegrass, herbicidal effect grade: 4 (Herbicidal rate of 70% or more and less than 90%)
windgrass
  herbicidal effect on windgrass (L): 4 (Herbicidal rate of 70% or more and less than 90%)
Blackgrass [7]
  herbicidal effect on blackgrass (J): 5 (Herbicidal rate of 90% or more (almost completely withered))
Wild oat [8]
  I: wild oat, herbicidal effect grade: 0 (Herbicidal rate of 5% or less (almost no effect))
lambsquarters
  herbicidal effect on lambsquarters (O): 3 (Herbicidal rate of 40% or more and less than 70%)

## Cc1ccc2oc(-c3ccc(SC(C)C)cc3)c(-c3c(O)c(C)nn(C)c3=O)c2c1 [9-059]
Barnyard grass [1]; [9]
  H (barnyard grass) herbicidal effect grade: 3 (Herbicidal rate of 40% or more and less than 70%)
Japanese bulrush
  Herbicidal effect, B: Japanese bulrush: 3 (Herbicidal rate of 40% or more and less than 70%)
Persian speedwell; [9]
  R (persian speedwell) herbicidal effect grade: 5 (Herbicidal rate of 90% or more (almost completely withered))
Southern crabgrass [2]; [9]
  F (southern crabgrass) herbicidal effect grade: 2 (Herbicidal rate of 20% or more and less than 40%)
Chinese sprangletop
  Herbicidal effect on D (Chinese sprangletop), foliage application: 3 (Herbicidal rate of 40% or more and less than 70%)
Blackgrass [3]
  J: blackgrass, herbicidal effect grade: 0 (Herbicidal rate of 5% or less (almost no effect))
oval-leafed pondweed
  Herbicidal effect, C: oval-leafed pondweed: 3 (Herbicidal rate of 40% or more and less than 70%)
Wild oat [4]; [9]
  I (wild oat) herbicidal effect grade: 3 (Herbicidal rate of 40% or more and less than 70%)
Redroot pigweed
  N: redroot pigweed, herbicidal effect grade: 5 (Herbicidal rate of 90% or more (almost completely withered))
Southern crabgrass [5]
  F: southern crabgrass, herbicidal effect grade: 0 (Herbicidal rate of 5% or less (almost no effect))
Barnyard grass [6]
  Herbicidal effect on H (barnyard grass), foliage application: 5 (Herbicidal rate of 90% or more (almost completely withered))
Italian ryegrass
  K: Italian ryegrass, herbicidal effect grade: 4 (Herbicidal rate of 70% or more and less than 90%)
windgrass; [9]
  L (windgrass) herbicidal effect grade: 1 (Herbicidal rate of 5% or more and less than 20%)
Blackgrass [7]; [9]
  J (blackgrass) herbicidal effect grade: 1 (Herbicidal rate of 5% or more and less than 20%)
Wild oat [8]
  I: wild oat, herbicidal effect grade: 0 (Herbicidal rate of 5% or less (almost no effect))
lambsquarters; [9]
  O (lambsquarters) herbicidal effect grade: 5 (Herbicidal rate of 90% or more (almost completely withered))
